Columns and labels:
[1] = tested on: RAW 264.7 mouse macrophage cells and MDA-MB-231 human adenocarcinoma cells; assay: Co-localization and migration of macrophages and tumor cells co-cultured in multilayer alginate fibers (CellTracker confocal imaging, Pearson correlation factor, Coloc2); type: cell-based; settings: for calculated correlation factor (Pearson): Day 4, drug at approximate IC50: 50 μM for ZA and Rac1, 50 nM for GEF; for migration and co-localization of macrophages with tumor cells: co-cultured fibers, four days of incubation, FIG. 6a
Text: Using CellTracker™-labeling and confocal fluorescence microscopy to quantify the co-localization of the tumor cells and macrophages in co-culture over time (FIG. 8). To calculate correlation factor, ImageJ Fiji with the Coloc2 plugin may be utilized. The images are split into separate channels for macrophages (a) and breast cancer (b) cells and despeckled to remove noise.

[2] = tested on: RAW 264.7 mouse macrophage cells and MDA-MB-231 human adenocarcinoma cells; assay: Macrophage to tumor cell volume ratio per fiber (3D stack counting); settings: Day 4, compared to the other samples
Text: CellTracker Green CM FDA dye and CellTracker CM-Dil dye (Life Technologies) were used to label RAW and 231 cells respectively according to manufacturer's instructions. Labeled 231 cells were dispersed in the alginate solution at a concentration of 5×10^6 cells/mL. Labeled RAW cells were dispersed in CaCl2 solution at a concentration of 4.5×10^7 cells/mL. After fiber generation, fibers were cut into approximately 20 mm sections and stored in 24-well cell culture plates containing media and pharmacological drugs. […] A vehicle control of 2% DMSO in cell culture media was also used. The cells were incubated at 37° C., 5% CO2 environment, with media changes every 2 days.

[3] = read-out: approximate IC50; cited from earlier work

Row | Structure (SMILES) | calculated correlation factor (Pearson) [1] | migration and co-localization of macrophages with tumor cells [1] | TC/Mϕ ratio [2] | calculated correlation factor (Pearson) ([1]; listed as inhibitor of Rac1) | inhibition of migration and co-localization (TC-Mϕ correlation compared to TC/Mϕ ratio) ([1]; FIG. 7b, straight and patterned fibers) | IC50 [3] [µM]
1 | COc1cc2ncnc(Nc3ccc(F)c(Cl)c3)c2cc1OCCCN1CCOCC1 [GEF, Gefitinib] | decreases | distinct impairment of migration and co-localization | – | – | – | –
2 | Cc1ccc(NC(=O)c2cccc(OCc3c(C)noc3C)c2)cc1S(N)(=O)=O [RAC, Rac1 Inhibitor II] | decreases | distinct impairment of migration and co-localization | significantly higher | return to anti-correlation comparable to initial seeding (Day 0) | highest inhibition of migration and co-localization | ~50

From US20180147767A1, “METHODS OF EXTRUDING MULTILAYER FIBERS” (THE BOARD OF TRUSTEES OF UNIVERSITY OF ILLINOIS, priority 2015, published 2018)
